Laboratory results published in patent US20110045027A1, “Adjuvant” (Glaxo Group Limited, priority 2005, published 2011).

Legend:
mouse skin = assay: In vivo delivery by intradermal injection and luciferase assay (pGL3CMV plasmid); parameters: species or system Balb/c×C3H F1 female mice; details: FIG. 3, OPTIMEM, 0.5:1 (w/w gemini:DNA)
Excerpt: Plasmid pGL3CMV is a luciferase expression vector based upon pGL3 Basic, (Promega Corporation., Madison, Wis., USA), where the CMV immediate early promoter drives luciferase expression. The plasmid pGL3CMV was used in all gene expression studies in mouse skin biopsies and has been described in WO03/061636.
Gemini surfactants were mixed with plasmid DNA by drop by drop addition of the diluted gemini surfactant formulation (in OPTIMEM) to the diluted plasmid DNA formulation (in OPTIMEM) at room temperature whilst the mixture was being mixed using a Vortex mixer (Mini Vortexer, VWR). […]
Plasmid DNA was delivered into the skin of Balb/c×C3H F1 female mice. […] Groups of 8-10 animals (or 4 to 5 animals with two injection sites) were analysed for skin gene expression. […]
Skin samples were thawed to room temperature and disrupted in 500 ul of Passive Lysis Buffer™ (Promega Corporation, Madison, Wis., USA) using an IKA Labortechnic Ultra turrax T8 polytron. Luciferase enzyme activity was determined using a luciferase assay kit (Promega). […] Luciferase activity (RLU) was measured as counts per minute on the Victor 2 1420 multilabel HTS counter on the luminescence program (Wallac, Perkin Elmer). Total protein concentration was calculated by a Coomassie Plus protein assay reagent kit (Perbio) using the manufacturer's protocol. […] The absorbance was measured at 595 nm on a Molecular Devices Spectra Max 340. […]

plasmid DNA (pdpSC18) = assay: Particle size of gemini surfactant-plasmid DNA complexes (lipoplexes) by QELS; format: physicochemical; details: buffers covering pH 6.5 to pH 4.5, FIG. 33
Experimental: Gemini surfactants were mixed with plasmid DNA by drop by drop addition of the diluted gemini surfactant formulation (in OPTIMEM) to the diluted plasmid DNA formulation (in OPTIMEM) at room temperature whilst the mixture was being mixed using a Vortex mixer (Mini Vortexer, VWR). The ratio of gemini surfactant to plasmid DNA was varied from 0.2:1 (w/w) to 4:1 (w/w) so that for a final volume of 50 ul per delivery, the formulation contained 10 ug of plasmid DNA with gemini surfactant at the correct ratio. Gemini: DNA mixtures or complexes were left at room temperature for 15 minutes post mixing to form and were then delivered to animals within 15 to 30 minutes. […]
(§1) The size of the particles formed by gemini surfactants and their complexes with plasmid DNA was measured by quasi-elastic light scattering (QELS) (Finsy, R., Advances in Colloid and Interface Science (1994) 52 (19 September):79-143; Gittings, M. R., and Saville, D. A., Colloids and Surfaces A: Physicochemical and Engineering Aspects (1998) 141: 111-117). Samples (50 μl) were analysed using a Brookhaven Instruments Corporation particle size analyser (BIC 90 Plus) following the manufacturer's instructions: 10 measurements, each consisting of 10 runs were taken per sample. […] The average particle size was automatically derived from the raw data by the instrument and expressed as the mean hydrodynamic diameter in nanometers (nm). […]

Balb/c mice [1] = assay: Cellular immune responses by IFN-γ / IL2 ELISPOT after immunisation with plasmid p7313iTrng; format: in vivo; details: Example 48; intradermal delivery, FIGS. 5 to 10
Excerpt: Plasmid p7313iTrng, is a vector where the CMV immediate early promoter drives the expression of a fusion antigen, RNG, consisting of parts of the HIV reverse transcriptase, nef and gag genes. The plasmid p7313iTrng was used in all immune response studies in mouse (WO03/025003).
Acclimatised 6-8 week old Female Balb/c mice were maintained under general anaesthesia using an oxygen-controlled inhaled Isoflourane mask for application by intradermal injection to the pre-shaved lower back above the base of the tail. Where necessary mice were given Rimadyl (Carprofen) as an analgesic in a sub-cutaneous dose of 5 mg/Kg, diluted 1:10 and delivered at 20 μl/mouse. […]
Mice were killed by cervical dislocation and spleens were collected into ice-cold PBS. […] After two washes in PBS to remove particulate matter the concentration of cells in the single cell suspension was assessed by counting in a Guava Flow Cytometer. […] After overnight culture, IFN-γ or IL2 producing cells were visualised by application of anti-murine IFN-γ-biotin or IL2-biotin labelled antibody (Pharmingen) followed by streptavidin-conjugated alkaline phosphatase and quantitated using image analysis.
Representatives of 3 classes of gemini surfactants were assessed for their ability to induce both cellular and humoral immune responses upon delivery to mouse skin through the intradermal route. […]

Balb/c mice [2] = assay: Humoral responses by ELISA, antigen-specific whole IgG (HIV RNG fusion protein); format: in vivo; details: Example 48; intradermal delivery, FIG. 11, day 14 post-boost
Experimental: Acclimatised 6-8 week old Female Balb/c mice were maintained under general anaesthesia using an oxygen-controlled inhaled Isoflourane mask for application by intradermal injection to the pre-shaved lower back above the base of the tail. Where necessary mice were given Rimadyl (Carprofen) as an analgesic in a sub-cutaneous dose of 5 mg/Kg, diluted 1:10 and delivered at 20 μl/mouse. Injections of up to 50 μl of freshly formulated DNA with or without gemini surfactant were given via BD 0.5 ml insulin syringes with 29 g needles.
The humoral response was assessed by measuring antigen-specific whole IgG antibody levels (eg. to HIV RNG fusion protein) in the serum samples collected after primary and boost immunisation. […] The amount of bound antibody was determined after 4 further washes (as above) followed by addition of TMB substrate solution (T-8540-Sigma). After 30 minutes at 20° C. protected from light, the reaction is stopped with 1M sulphuric acid and absorbance read at 450 nm. […]
Humoral responses to RNG fusion peptide (WO03/025003), as serum whole IgG, were monitored at day 14 post-boost (FIG. 11). […]
Humoral responses were also analysed in this example. The humoral responses were measured as whole serum IgG and data were collected both after a homologous prime and boost and again after a heterologous boost with NHP Adenovirus p6GRN, see FIG. 42. […]

[3] = Particle size of gemini surfactant solutions by quasi-elastic light scattering (QELS); format: physicochemical; details: fresh solutions stored at 4° C., particle size at bi-weekly intervals, 10-week study, FIG. 28
Experimental: All gemini surfactants were prepared from lyophilised stocks by vortex re-suspension in pure water at a stock concentration of 1 mg/ml stored at 4° C. Gemini surfactants were diluted either in pure water or were directly diluted in Optimem®1 (GIBCO Invitrogen) for immediate use. Where gemini surfactants were formulated together with other helper lipids such as DOPE, these were co-lyophilised at a 1:1, (w/w) ratio and similarly vortex re-suspended in pure water at a stock concentration of 1 mg/ml stored at 4° C.
as §1
The colloidal properties of gemini surfactant solutions were monitored over time in order to analyse their apparent instability in greater detail. […]

CCCCCCCC/C=C\CCCCCCCC(=O)NCCCN(CCCCN(CCCNC(=O)CCCCCCCCCCCCCCCCC)C(=O)[C@H](N)CCCCN)C(=O)[C@H](N)CCCCN [GSC103 D-Lys, Oleic Acid, Stearic Acid]
gene delivery and/or expression in mouse skin versus DNA with DMRIE-C or electroporation (mouse skin): exception

CCCCCCCC/C=C\CCCCCCCC(=O)NCCCN(CCCCN(CCCNC(=O)CCCCCCC/C=C\CCCCCCCC)C(=O)[C@@H](N)CCCCN)C(=O)[C@@H](N)CCCCN [GSC103-L-Lys]
pH sensitivity of lipoplexes (particle size versus pH) (plasmid DNA (pdpSC18)): fluctuated with falling pH | level of cellular immune responses versus PMED at boost (Balb/c mice [1]): comparable to those induced by PMED at boost | level of humoral immune responses versus PMED at boost (Balb/c mice [2]): comparable to those induced by PMED at boost | storage time for which the solution remained stable before particle formation [3]: 2 weeks
